Three molecules from PMC11292009, “Mapping protein binding sites by photoreactive fragment pharmacophores” (Communications Chemistry, 2024) can be followed below.

Common to all, as to format: binding
Assay [1] relates to carbonic anhydrase II (CA). Put plainly: Intact protein MS photoaffinity labeling screen, carbonic anhydrase. To be noted: intact protein MS after 10 min irradiation. The gist of the method: (§1)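 Intact-protein mass spectrometry detected covalent adduct mass shifts, giving percent labeling per fragment. Beforehand, single fragments per well were pre-incubated 15 min with each benchmark protein ahead of photoactivation.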

The subject of assay [2] is T1, BRD4-BD1.
T1 construct: screened the PhP library against the first bromodomain of BRD4 (BRD4-BD1); purchased GSK/GenScript
Nature of the assay: Intact MS photoaffinity labeling screen, BRD4-BD1 (302 nm, LCMS-TOF). To be noted: for MS labeling percentage, BRD4: BRD4-BD1, 302 nm 10 min. The gist of the method:
(§2)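 Labeling detected as mass additions in deconvoluted intact-protein LCMS-TOF spectra. Protein at 1 μM in PBS was first mixed with one fragment per well on ice for 15 min, followed by 10 min UV exposure at 302 nm.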

Assay [3] concerns T2, KRas^G12D.
T2 construct: purchased GSK/GenScript
Put plainly: Intact MS photoaffinity labeling screen, KRas G12D (302 nm, LCMS-TOF). To be noted: for MS labeling percentage, KRas: KRas G12D, 302 nm 10 min. The gist of the method:
as §2

The test system of assay [4] is lysozyme (Lyo). Nature of the assay: Intact protein MS photoaffinity labeling screen, lysozyme. To be noted: intact protein MS after 10 min irradiation. In outline: as §1
Assay [5] concerns myoglobin (Myo). Nature of the assay: Intact protein MS photoaffinity labeling screen, myoglobin. To be noted: intact protein MS after 10 min irradiation. In outline: as §1
Assay [6] has as its system T3, STAT5B-NTD.
T3 construct: His-SUMO (N, cleaved yes); made in house; host or cells: E. coli BL21 RILP
Put plainly: Intact MS photoaffinity labeling screen, STAT5B-NTD (365 nm, UHPLC-MS).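 As to MS labeling percentage, STAT5B: 0.17 µL of 100 mM DMSO fragment stock added to the protein sample.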 In outline:
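Intact-protein labeling detected by UHPLC-MS in positive ion mode over m/z 100–2000. Samples were first photo-crosslinked at 365 nm for 10 min at 4 °C. Before irradiation, 7 µM STAT5B in PBS pH 7.4 was pre-incubated with probe for 1 h in the dark at room temperature.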

Assay [7] deals with T3, STAT5B-NTD. Nature of the assay: Intact MS labeling screen, STAT5B-NTD conjugated with photocatalyst Ir-G2-PEG3-COOH (450 nm).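 Also: 0.14 µL of 100 mM DMSO fragment stock added to the conjugate.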 To be noted: 450 nm 10 min. The gist of the method: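 Ir-G2-PEG3-COOH photocatalyst (10 eq) activated 30 min with EDC/NHS/BOP, then conjugated to STAT5B-NTD (7 µM) overnight at RT or 1 h at 37 °C in dark. PhP added, 1 h dark, then 450 nm irradiation 10 min at 4 °C; labeling read by intact LC-MS, positive ion mode, m/z 100–2000.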

In assay [8] the test system is CA, Lyo, Myo, BRD4-BD1, KRas G12D, STAT5B-NTD. Put plainly: Intact MS labeling compared over all protein targets. To be noted: for Labeling of the other protein targets (vs. preferred target): each of the other targets. In outline: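 Each fragment incubated 15 min with protein, then UV-irradiated 10 min at 302 or 365 nm to crosslink. Labeling % read by intact-protein LC-TOF MS from mass additions. For BRD4-BD1 and KRas G12D, protein stock was 1 µM in PBS, fragment stock 20 mM, incubation was on ice and irradiation at 302 nm.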

[9] abbreviates: sheet PhP, experimental hit status flag given as 0 or 1.
Where [10] appears, read: PhP library sheet "PhP", binary flag printed as 0 or 1, key not given.

Where “and” joins values, the source holds several entries; their conditions need not be identical. Identical values can stand only once.

Turning to `Cc1[nH]c2ccccc2c1SCCNC(=O)CCC1(C)N=N1` [PhP065, c1cccc(c12)c(c(C)[nH]2)SCCNC(=O)CCC3(C)N=N3], the “MS labeling percentage, CA” value in assay [1] stood at 0.3%. Further, the “BRD4-BD1 (experimental hit status)” value in assay [2] (setting [9]) was 0. In assay [3], the “MS labeling percentage, KRas” value was 0.2%. In addition, the “KRAS-G12D (experimental hit status)” value in assay [3] (setting [9]) amounted to 0. Besides, the “MS labeling percentage, Lyo” value in assay [4] amounted to 2.6%. For the same molecule, the “MS labeling percentage, Myo” value in assay [5] is on record as 0.1%. Further, the “STAT5B-NTD (experimental hit status)” value in assay [6] (setting [9]) worked out at 1. Moreover, the “MS labeling percentage, STAT5B+photocat” value in assay [7] stood at 11.2%. Also, in assay [8], the “Labeling of the other protein targets (vs. preferred target)” value is > 3% and < 3%.
As to `Cc1ncc(CO)c(CNC(=O)CCC2(C)N=N2)c1O` [PhP072, Cc1ncc(CO)c(c1O)CNC(=O)CCC2(C)N=N2], the “MS labeling percentage, CA” value in assay [1] is listed as 7.7%. Also, the “MS labeling percentage, BRD4” value in assay [2] was determined as 2.2%. Moreover, the “BRD4-BD1 (experimental hit status)” value in assay [2] (setting [9]) amounted to 1. Besides, in assay [3], the “MS labeling percentage, KRas” value came out at 12.2%. Besides, in assay [3] (setting [9]), the “KRAS-G12D (experimental hit status)” value is on record as 1. In addition, in assay [4], the “MS labeling percentage, Lyo” value was determined as 1%. Moreover, the “MS labeling percentage, Myo” value in assay [5] worked out at 3.3%. The “MS labeling percentage, STAT5B” value in assay [6] (STAT5B-NTD, 365 nm 10 min, no photocatalyst) was found to be 0%. In addition, the “STAT5B-NTD (experimental hit status)” value in assay [6] (setting [9]) is 0. Also, in assay [7], the “MS labeling percentage, STAT5B+photocat” value is 3.3%. Besides, the “Labeling efficiency over all protein targets (mean ± spread)” value in assay [8] (over all protein targets) was 4.4 ± 4.3%.
Take `CC1(CCC(=O)NCCc2csc(-c3ccccc3)n2)N=N1` [PhP097, N1=NC1(C)CCC(=O)NCCc2csc(n2)-c3ccccc3]: the “MS labeling percentage, CA” value in assay [1] turned out to be 0%. The “MS labeling percentage, BRD4” value in assay [2] was 0.5%. For the same molecule, the “BRD4-BD1 (experimental hit status)” value in assay [2] (setting [10]) is recorded as 0. For the same molecule, the “MS labeling percentage, KRas” value in assay [3] was determined as 0.2%. For the same molecule, the “KRAS-G12D (experimental hit status)” value in assay [3] (setting [10]) amounted to 0. Moreover, the “MS labeling percentage, Lyo” value in assay [4] was 1.8%. The “MS labeling percentage, Myo” value in assay [5] is reported as 0.1%. Further, the “STAT5B-NTD (experimental hit status)” value in assay [6] (setting [10]) was 1. Further, the “MS labeling percentage, STAT5B+photocat” value in assay [7] stood at 4.2%. Moreover, in assay [8], the “Labeling of the other protein targets (vs. preferred target)” value is > 3% and < 3%.
